Experiments:
[1] = tested on: diffuse large B-cell lymphoma (DLBCL) cell lines; assay: Co-treatment combination study with Cpd. No. 15, further cell lines (Table F), CellTiter-Glo viability, Loewe Volume; assay type: cell-based; conditions: for Combination effect with Cpd. No. 15 (Loewe Volume class), Ri1: co-treatment with Cpd. No. 15, cell line Ri1 (Cat. No. 96090512-1VL); for Combination effect with Cpd. No. 15 (Loewe Volume class), TMD8: co-treatment with Cpd. No. 15, cell line TMD8 (Cat. No. M-097); for Combination effect with Cpd. No. 15 (Loewe Volume class), WILL1: co-treatment with Cpd. No. 15, cell line WILL1 (Cat. No. ACC 651)
Experimental: (§1) Mantle cell lymphoma (MCL) and diffuse large B-cell lymphoma (DLBCL) cell line cultures in log-linear growth rate were treated with combinations of Cpd. No. 15 and combination partners according to a co-treatment model. […] No. 15 and the combination partner. […] Each combination was tested in quadruplicate wells. The final concentration of DMSO (vehicle) in the assay was 0.1% v/v. Fifty microliters of cell line suspension were directly dispensed to the assay-ready plates with an automated multichannel dispenser on to 384-well assay-ready plates. Assay plates were incubated for seven days unless otherwise indicated in a humidified atmosphere of 5% CO2 at 37° C. Quantification of the effect of single agents or combinations on cell viability was performed through measurement of cellular adenosine triphosphate (ATP) using a CellTiter-Glo® (Promega, Madison, WI) Luminescent Cell Viability Assay. Luminescence was detected using a SpectraMax M5 microplate reader (Molecular Devices, Sunnyvale, CA). Concentration response plots were generated in GraphPad Prism version 7.0 for Windows, GraphPad Software, (La Jolla, California) and curves fitted to a four-parameter logistic model with variable slope. Percent of inhibition was calculated at each treatment concentration.

JEKO1 = assay: Co-treatment combination study with Cpd. No. 15, CellTiter-Glo viability, Loewe Volume; assay type: cell-based; conditions: in combination with Cpd. No. 15, seven days, mantle cell lymphoma cell line JEKO1 (CRL-3006)
Experimental: as §1

DOHH2 = assay: as above; assay type: cell-based; conditions: in combination with Cpd. No. 15, seven days, DLBCL cell line DOHH2
Experimental: as §1

HT = assay: as above; assay type: cell-based; conditions: in combination with Cpd. No. 15, seven days, DLBCL cell line HT
Experimental: as §1

SUDHL5 = assay: as above; assay type: cell-based; conditions: in combination with Cpd. No. 15, seven days, DLBCL cell line SUDHL5
Experimental: as §1

SUDHL10 = assay: as above; assay type: cell-based; conditions: in combination with Cpd. No. 15; 5-Day Cotreatment; DLBCL cell line SUDHL10
Experimental: as §1

RL = assay: as above; assay type: cell-based; conditions: in combination with Cpd. No. 15; 6-Day Cotreatment; DLBCL cell line RL
Experimental: as §1

GRANTA519 = assay: as above; assay type: cell-based; conditions: in combination with Cpd. No. 15, seven days, mantle cell lymphoma cell line GRANTA519 (ACC 342)
Experimental: as §1

TOLEDO = assay: as above; assay type: cell-based; conditions: in combination with Cpd. No. 15, seven days, DLBCL cell line TOLEDO
Experimental: as §1

Z138 = assay: as above; assay type: cell-based; conditions: in combination with Cpd. No. 15, seven days, mantle cell lymphoma cell line Z138 (CRL-3001)
Experimental: as §1

JVM2 = assay: as above; assay type: cell-based; conditions: in combination with Cpd. No. 15, seven days, mantle cell lymphoma cell line JVM2 (CRL-3002)
Experimental: as §1

MAVER1 = assay: as above; assay type: cell-based; conditions: in combination with Cpd. No. 15, seven days, mantle cell lymphoma cell line MAVER1 (CRL-3008)
Experimental: as §1

MINO = assay: as above; assay type: cell-based; conditions: in combination with Cpd. No. 15, seven days, mantle cell lymphoma cell line MINO (CRL-3000)
Experimental: as §1

WILL2 = assay: as above; assay type: cell-based; conditions: in combination with Cpd. No. 15, seven days, DLBCL cell line WILL2
Experimental: as §1

DB = assay: as above; assay type: cell-based; conditions: in combination with Cpd. No. 15, seven days, DLBCL cell line DB
Experimental: as §1

REC1 = assay: as above; assay type: cell-based; conditions: in combination with Cpd. No. 15, seven days, mantle cell lymphoma cell line REC1 (CRL-3004)
Experimental: as §1

SUDHL6 = assay: as above; assay type: cell-based; conditions: in combination with Cpd. No. 15, seven days, DLBCL cell line SUDHL6
Experimental: as §1

SUDHL4 = assay: as above; assay type: cell-based; conditions: in combination with Cpd. No. 15, seven days, DLBCL cell line SUDHL4
Experimental: as §1

WSUNHL = assay: as above; assay type: cell-based; conditions: in combination with Cpd. No. 15, seven days, DLBCL cell line WSUNHL
Experimental: as §1

WSUDLCL2 = assay: as above; assay type: cell-based; conditions: in combination with Cpd. No. 15, seven days, DLBCL cell line WSUDLCL2
Experimental: as §1

KARPAS422 = assay: as above; assay type: cell-based; conditions: in combination with Cpd. No. 15, seven days, DLBCL cell line KARPAS422
Experimental: as §1

SUDHL8 = assay: as above; assay type: cell-based; conditions: in combination with Cpd. No. 15, seven days, DLBCL cell line SUDHL8
Experimental: as §1

SUDHL2 = assay: as above; assay type: cell-based; conditions: in combination with Cpd. No. 15, seven days, DLBCL cell line SUDHL2
Experimental: as §1

Pfeiffer = assay: as above; assay type: cell-based; conditions: in combination with Cpd. No. 15, seven days, DLBCL cell line Pfeiffer
Experimental: as §1

[2] = tested on: diffuse large B-cell lymphoma (DLBCL) cell lines; assay: Pre-treatment model combination study with Cpd. No. 15 (7 days pre-treatment, then combination; Table G), CellTiter-Glo viability, Loewe Volume; conditions: 7 days pre-treatment with Cpd. No. 15, then combination

| Compound | Combination effect with Cpd. No. 15 (Loewe Volume class), Ri1 [1] | Combination effect with Cpd. No. 15 (Loewe Volume class), TMD8 [1] | Combination effect with Cpd. No. 15 (Loewe Volume class), WILL1 [1] | Combination effect (Loewe Volume) JEKO1 (JEKO1) | Combination effect (Loewe Volume) DOHH2 (DOHH2) | Combination effect (Loewe Volume) HT (HT) | Combination effect (Loewe Volume) SUDHL5 (SUDHL5) | Combination effect (Loewe Volume) SUDHL10 (SUDHL10) | Combination effect (Loewe Volume) RL (RL) | Combination effect (Loewe Volume) TOLEDO (TOLEDO) | Combination effect (Loewe Volume) WILL2 (WILL2) | Combination effect (Loewe Volume) DB (DB) | Combination effect (Loewe Volume) SUDHL6 (SUDHL6) | Combination effect (Loewe Volume) SUDHL4 (SUDHL4) | Combination effect (Loewe Volume) WSUNHL (WSUNHL) | Combination effect (Loewe Volume) WSUDLCL2 (WSUDLCL2) | Combination effect (Loewe Volume) KARPAS422 (KARPAS422) | Combination effect (Loewe Volume) SUDHL8 (SUDHL8) | Combination effect (Loewe Volume) SUDHL2 (SUDHL2) | Combination effect (Loewe Volume) Pfeiffer (Pfeiffer) | further results |
| --- | --- | --- | --- | --- | --- | --- | --- | --- | --- | --- | --- | --- | --- | --- | --- | --- | --- | --- | --- | --- | --- |
| COc1cccc2c1C(=O)c1c(O)c3c(c(O)c1C2=O)C[C@@](O)(C(=O)CO)C[C@@H]3O[C@H]1C[C@H](N)[C@H](O)[C@H](C)O1 [Doxorubicin, doxorubicin] | Synergy (VLoewe>1: synergy) | Additivity (between 1 and −1: additivity) | Additivity (between 1 and −1: additivity) | Additivity (between 1 and −1: additivity) | Additivity (between 1 and −1: additivity) | Additivity (between 1 and −1: additivity) | Additivity (between 1 and −1: additivity) | Additivity (between 1 and −1: additivity) | Additivity (between 1 and −1: additivity) | Synergy (VLoewe>1: synergy) | Additivity (between 1 and −1: additivity) | Additivity (between 1 and −1: additivity) | Synergy (VLoewe>1: synergy) | Additivity (between 1 and −1: additivity) | Additivity (between 1 and −1: additivity) | Additivity (between 1 and −1: additivity) | Additivity (between 1 and −1: additivity) | Additivity (between 1 and −1: additivity) | Additivity (between 1 and −1: additivity) | Additivity (between 1 and −1: additivity) | Combination effect (Loewe Volume) GRANTA519 (GRANTA519): Additivity (between 1 and −1: additivity); Combination effect (Loewe Volume) Z138 (Z138): Additivity (between 1 and −1: additivity); Combination effect (Loewe Volume) JVM2 (JVM2): Additivity (between 1 and −1: additivity); Combination effect (Loewe Volume) MAVER1 (MAVER1): Additivity (between 1 and −1: additivity); Combination effect (Loewe Volume) MINO (MINO): Additivity (between 1 and −1: additivity); Combination effect (Loewe Volume) REC1 (REC1): Additivity (between 1 and −1: additivity) |
| Nc1ccn([C@@H]2O[C@H](CO)[C@@H](O)C2(F)F)c(=O)n1 [Gemcitabine, gemcitabine] | Additivity (between 1 and −1: additivity) | Additivity (between 1 and −1: additivity) | Additivity (between 1 and −1: additivity) | – | Additivity (between 1 and −1: additivity) | Additivity (between 1 and −1: additivity) | Additivity (between 1 and −1: additivity) | Additivity (between 1 and −1: additivity) | Additivity (between 1 and −1: additivity) | Additivity (between 1 and −1: additivity) | Additivity (between 1 and −1: additivity) | Additivity (between 1 and −1: additivity) | Additivity (between 1 and −1: additivity) | Additivity (between 1 and −1: additivity) | Additivity (between 1 and −1: additivity) | Additivity (between 1 and −1: additivity) | Additivity (between 1 and −1: additivity) | Additivity (between 1 and −1: additivity) | Additivity (between 1 and −1: additivity) | Additivity (between 1 and −1: additivity) | Combination effect with Cpd. No. 15 (Loewe Volume class), Farage ([2]; cell line Farage (Cat. No. CRL-2630)): Additivity (between 1 and −1: additivity); Combination effect with Cpd. No. 15 (Loewe Volume class), HT ([2]; cell line HT (Cat. No. CRL-2631)): Additivity (between 1 and −1: additivity); Combination effect with Cpd. No. 15 (Loewe Volume class), OCILY7 ([2]; cell line OCILY7 (Cat. No. ACC 688)): Additivity (between 1 and −1: additivity); Combination effect with Cpd. No. 15 (Loewe Volume class), SUDHL4 ([2]; cell line SUDHL4 (Cat. No. ACC 495)): Additivity (between 1 and −1: additivity); Combination effect with Cpd. No. 15 (Loewe Volume class), WILL2 ([2]; cell line WILL2 (Cat. No. ACC 652)): Additivity (between 1 and −1: additivity) |
| C=CC(=O)N1CCC[C@@H](n2nc(-c3ccc(Oc4ccccc4)cc3)c3c(N)ncnc32)C1 [Ibrutinib, ibrutinib] | – | – | – | Synergy (VLoewe>1: synergy) | Synergy (VLoewe>1: synergy) | No Effect | No Effect | No Effect | Additivity (between 1 and −1: additivity) | No Effect | Additivity (between 1 and −1: additivity) | No Effect | Synergy (VLoewe>1: synergy) | Synergy (VLoewe>1: synergy) | Additivity (between 1 and −1: additivity) | Additivity (between 1 and −1: additivity) | No Effect | No Effect | No Effect | No Effect | Combination effect (Loewe Volume) GRANTA519 (GRANTA519): Additivity (between 1 and −1: additivity); Combination effect (Loewe Volume) Z138 (Z138): No Effect; Combination effect (Loewe Volume) JVM2 (JVM2): Additivity (between 1 and −1: additivity); Combination effect (Loewe Volume) MAVER1 (MAVER1): Synergy (VLoewe>1: synergy); Combination effect (Loewe Volume) MINO (MINO): Synergy (VLoewe>1: synergy); Combination effect (Loewe Volume) REC1 (REC1): Additivity (between 1 and −1: additivity) |
